Test results published in US20250262201A1, “COMPOUNDS AND METHODS USEFUL FOR STABILIZING PHENYLALANINE HYDROXYLASE MUTATIONS” (Agios Pharmaceuticals, Inc., priority 2022, published 2025).
Where a name gives a salt, the structure may show the parent alone.

Each molecule was assayed against T1, human PAH with the R408W mutation (Homo sapiens, UniProt P00439, R408W) (assay: Cell Based Phenylalanine Flux Assay). Conditions: A375 cells expressing human R408W PAH; 24 hrs compound incubation; 13C-Tyrosine by LC-MS; average where tested multiple times; read-out: AC50.
T1 construct: expressed in transfected cells
T1 sequence (P00439 1-452 R408W): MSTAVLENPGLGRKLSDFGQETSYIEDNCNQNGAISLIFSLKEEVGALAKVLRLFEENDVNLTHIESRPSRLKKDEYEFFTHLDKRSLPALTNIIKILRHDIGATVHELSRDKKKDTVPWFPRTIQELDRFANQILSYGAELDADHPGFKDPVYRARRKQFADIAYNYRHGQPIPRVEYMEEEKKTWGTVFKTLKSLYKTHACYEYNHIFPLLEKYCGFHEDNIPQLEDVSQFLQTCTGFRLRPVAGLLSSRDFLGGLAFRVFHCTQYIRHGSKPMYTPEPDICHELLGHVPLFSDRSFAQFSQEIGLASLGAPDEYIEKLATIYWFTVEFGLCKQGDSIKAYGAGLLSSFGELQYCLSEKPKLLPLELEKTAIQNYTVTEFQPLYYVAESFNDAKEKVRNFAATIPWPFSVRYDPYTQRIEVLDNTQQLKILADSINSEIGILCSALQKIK
With `Cn1nc(C(=O)N2CCc3[nH]cnc3[C@H]2c2cc3ccccc3cn2)c2ccccc21` [Example 360, (R)-(4-(isoquinolin-3-yl)-6,7-dihydro-1H-imidazo[4,5-c]pyridin-5(4H)-yl)(1-methyl-1H-indazol-3-yl)methanone] the AC50 was less than 500 nM. With `Cc1nnc(C(=O)N2CCc3[nH]cnc3[C@H]2c2cc3ccccc3cn2)s1` [Example 361, (R)-(4-(isoquinolin-3-yl)-6,7-dihydro-1H-imidazo[4,5-c]pyridin-5(4H)-yl)(5-methyl-1,3,4-thiadiazol-2-yl)methanone] the AC50 was 500 to 1000 nM. For `O=C(c1ccn2ncccc12)N1CCc2[nH]cnc2[C@H]1c1cc2ccccc2cn1` [Example 362, (R)-(4-(isoquinolin-3-yl)-6,7-dihydro-1H-imidazo[4,5-c]pyridin-5(4H)-yl)(pyrrolo[1,2-b]pyridazin-5-yl)methanone], the AC50 was less than 500 nM. For `CN(C)C(=O)c1nnc(N2CCc3[nH]cnc3[C@H]2c2cc3ccccc3cn2)o1` [Example 363, (R)-5-(4-(isoquinolin-3-yl)-6,7-dihydro-1H-imidazo[4,5-c]pyridin-5(4H)-yl)-N,N-dimethyl-1,3,4-oxadiazole-2-carboxamide], the AC50 was 500 to 1000 nM. `O=C(c1nnc(-c2ccccc2)s1)N1CCc2[nH]cnc2[C@H]1c1cc2ccccc2cn1` [Example 364, (R)-(4-(isoquinolin-3-yl)-6,7-dihydro-1H-imidazo[4,5-c]pyridin-5(4H)-yl)(5-phenyl-1,3,4-thiadiazol-2-yl)methanone] gave an AC50 of less than 500 nM. Work on `c1ccc(-c2nnc(N3CCc4[nH]cnc4[C@H]3c3cc4ccccc4cn3)o2)nc1` [Example 365, (R)-2-(4-(isoquinolin-3-yl)-6,7-dihydro-1H-imidazo[4,5-c]pyridin-5(4H)-yl)-5-(pyridin-2-yl)-1,3,4-oxadiazole] yielded an AC50 of 500 to 1000 nM. `CN(C)c1nnc(C(=O)N2CCc3[nH]cnc3[C@H]2c2cc3ccccc3cn2)o1` [Example 366, (R)-(5-(dimethylamino)-1,3,4-oxadiazol-2-yl)(4-(isoquinolin-3-yl)-6,7-dihydro-1H-imidazo[4,5-c]pyridin-5(4H)-yl)methanone] gave an AC50 of less than 500 nM. `CN(C)c1nnc(C(=O)N2CCc3[nH]cnc3[C@@H]2c2cc3ccccc3cn2)o1` [Example 367, (S)-(5-(dimethylamino)-1,3,4-oxadiazol-2-yl)(4-(isoquinolin-3-yl)-6,7-dihydro-1H-imidazo[4,5-c]pyridin-5(4H)-yl)methanone] was tested, and the AC50 was greater than 5000 nM. In the case of `O=C(Cc1nc(C(F)(F)F)cs1)N1CCc2[nH]cnc2[C@H]1c1cc2ccccc2cn1` [Example 368, (R)-1-(4-(isoquinolin-3-yl)-6,7-dihydro-1H-imidazo[4,5-c]pyridin-5(4H)-yl)-2-(4-(trifluoromethyl)thiazol-2-yl)ethanone], the AC50 is reported as less than 500 nM. For `O=C(Cn1cncn1)N1CCc2[nH]cnc2[C@H]1c1cc2ccccc2cn1` [Example 369, (R)-1-(4-(isoquinolin-3-yl)-6,7-dihydro-1H-imidazo[4,5-c]pyridin-5(4H)-yl)-2-(1H-1,2,4-triazol-1-yl)ethanone], the AC50 was 500 to 1000 nM. `O=C(c1nnc(NC2CC2)o1)N1CCc2[nH]cnc2[C@H]1c1cc2ccccc2cn1` [Example 370, (R)-(5-(cyclopropylamino)-1,3,4-oxadiazol-2-yl)(4-(isoquinolin-3-yl)-6,7-dihydro-1H-imidazo[4,5-c]pyridin-5(4H)-yl)methanone] was tested, and the AC50 was 500 to 1000 nM. `O=C(c1nnc(NC2CC2)o1)N1CCc2[nH]cnc2[C@@H]1c1cc2ccccc2cn1` [Example 371, (S)-(5-(cyclopropylamino)-1,3,4-oxadiazol-2-yl)(4-(isoquinolin-3-yl)-6,7-dihydro-1H-imidazo[4,5-c]pyridin-5(4H)-yl)methanone] gave an AC50 greater than 5000 nM. `Cc1ncc(CC(=O)N2CCc3[nH]cnc3[C@H]2c2cc3ccccc3cn2)o1` [Example 372, (R)-1-(4-(isoquinolin-3-yl)-6,7-dihydro-1H-imidazo[4,5-c]pyridin-5(4H)-yl)-2-(2-methyloxazol-5-yl)ethanone] showed an AC50 of less than 500 nM. Molecule `O=C(Cc1cncs1)N1CCc2[nH]cnc2[C@H]1c1cc2ccccc2cn1` [Example 373, (R)-1-(4-(isoquinolin-3-yl)-6,7-dihydro-1H-imidazo[4,5-c]pyridin-5(4H)-yl)-2-(thiazol-5-yl)ethanone] has an AC50 of less than 500 nM. `O=C(Cc1ccccn1)N1CCc2[nH]cnc2[C@H]1c1cc2ccccc2cn1` [Example 374, (R)-1-(4-(isoquinolin-3-yl)-6,7-dihydro-1H-imidazo[4,5-c]pyridin-5(4H)-yl)-2-(pyridin-2-yl)ethanone] was tested, and the AC50 was less than 500 nM. Molecule `O=C(Cc1cnn2ccccc12)N1CCc2[nH]cnc2[C@H]1c1cc2ccccc2cn1` [Example 375, (R)-1-(4-(isoquinolin-3-yl)-6,7-dihydro-1H-imidazo[4,5-c]pyridin-5(4H)-yl)-2-(pyrazolo[1,5-a]pyridin-3-yl)ethanone] has an AC50 of less than 500 nM. `CC(F)(F)c1ncc(C(=O)N2CCc3[nH]cnc3[C@H]2c2cc3ccccc3cn2)s1` [Example 376, (R)-(2-(1,1-difluoroethyl)thiazol-5-yl)(4-(isoquinolin-3-yl)-6,7-dihydro-1H-imidazo[4,5-c]pyridin-5(4H)-yl)methanone hydrochloride] gave an AC50 of less than 500 nM. `O=C(c1oc(-c2ccccn2)nc1C1CC1)N1CCc2[nH]cnc2[C@H]1c1cc2ccccc2cn1` [Example 377, (R)-(4-cyclopropyl-2-(pyridin-2-yl)oxazol-5-yl)(4-(isoquinolin-3-yl)-6,7-dihydro-1H-imidazo[4,5-c]pyridin-5(4H)-yl)methanone] was tested, and the AC50 was less than 500 nM. `CC(C)(O)c1nc(C2CC2)c(C(=O)N2CCc3[nH]cnc3[C@H]2c2cc3ccccc3cn2)o1` [Example 378, (R)-(4-cyclopropyl-2-(2-hydroxypropan-2-yl)oxazol-5-yl)(4-(isoquinolin-3-yl)-6,7-dihydro-1H-imidazo[4,5-c]pyridin-5(4H)-yl)methanone] was tested, and the AC50 was less than 500 nM. `C[C@H]1CN(C(=O)c2cnc(-c3ccccn3)o2)[C@H](c2cc3ccccc3cn2)c2nc[nH]c21` [Example 381, ((4R,7S)-4-(isoquinolin-3-yl)-7-methyl-6,7-dihydro-1H-imidazo[4,5-c]pyridin-5(4H)-yl)(2-(pyridin-2-yl)oxazol-5-yl)methanone] gave an AC50 of 1000 to 5000 nM. For `C[C@H]1CN(C(=O)c2cnc(-c3ccccn3)o2)[C@@H](c2cc3ccccc3cn2)c2nc[nH]c21` [Example 382, ((4S,7S)-4-(isoquinolin-3-yl)-7-methyl-6,7-dihydro-1H-imidazo[4,5-c]pyridin-5(4H)-yl)(2-(pyridin-2-yl)oxazol-5-yl)methanone], the AC50 was greater than 5000 nM. `C[C@@H]1CN(C(=O)c2cnc(-c3ccccn3)o2)[C@H](c2cc3ccccc3cn2)c2nc[nH]c21` [Example 384, ((4R,7R)-4-(isoquinolin-3-yl)-7-methyl-6,7-dihydro-1H-imidazo[4,5-c]pyridin-5(4H)-yl)(2-(pyridin-2-yl)oxazol-5-yl)methanone] showed an AC50 of 1000 to 5000 nM. In the case of `Cc1nc(C(C)(C)O)oc1C(=O)N1C[C@H](C)c2[nH]cnc2[C@H]1c1cc2ccccc2cn1` [Example 389, (2-(2-hydroxypropan-2-yl)-4-methyloxazol-5-yl)((4R,7S)-4-(isoquinolin-3-yl)-7-methyl-6,7-dihydro-1H-imidazo[4,5-c]pyridin-5(4H)-yl)methanone], the AC50 is reported as less than 500 nM.
